Values quoted from earlier work, collected in patent publication US8338381B2, “Composition and method for the treatment of eye disease” (ADER Enterprise, Inc., priority 2003, dated 2012).

Legend:
[1] = administered directly to the eye; Babizhayev 1996
eye cataracts = conditions: administered directly to the eye; Babizhayev 1996

SMILES: NCCC(=O)N[C@@H](Cc1cnc[nH]1)C(=O)O [L-carnosine, β-alanyl-L-histidine]
- accumulation in the aqueous humor of the eye [1]: does not lead to accumulation in the aqueous humor of the eye
- effect on eye cataracts beyond placebo control (eye cataracts): does not lead to accumulation in the aqueous humor of the eye or have any significant effect on eye cataracts beyond that of a placebo control
